In publication PMC11284802 (Journal of Medicinal Chemistry, 2024):
pIC50: −log10 of the molar value. Each block holds one molecule with its values, some of them ahead of it.

Assays:
[1] = test system: mouse hepatitis virus (MHV); test: MHV assay; assay type: cell-based
[2] = test system: phosphorylation of CSNK2 substrate EIF2S2; test: Inhibition of EIF2S2 phosphorylation in vitro; assay type: cell-based, human; details: A549-ACE2 cells, 1 or 5 μM, 24 h
[3] = Plasma stability; assay type: in vitro ADME; details: human plasma, 37 °C, 0 and 6 h
[4] = molecular target: T1, DYRK1A (Homo sapiens, UniProt Q13627); test: NanoBRET dose-response, off-target kinase; assay type: cell-based; details: poor assay window
[5] = molecular target: CLK4 (Homo sapiens, UniProt Q9HAZ1); test: NanoBRET K192 panel; assay type: cell-based; details: read-out: NanoBRET K192 % occupancy at 10 μM, CLK4
[6] = molecular target: PHKG1 (Homo sapiens, UniProt Q16816); test: NanoBRET K192 panel; assay type: cell-based; details: read-out: NanoBRET K192 % occupancy at 10 μM, PHKG1
[7] = test system: EIF2S2 (phospho-Ser2); test: In vivo CSNK2 inhibition; design: species or system CD-1 mice; details: 10 mg/kg i.p. b.i.d., 36 h, vs vehicle
[8] = molecular target: T2, HIPK4 (Homo sapiens, UniProt Q8NE63); test: NanoBRET K192 panel; assay type: cell-based; details: read-out: NanoBRET K192 % occupancy at 10 μM, HIPK4
T2 sequence (Q8NE63 1-616): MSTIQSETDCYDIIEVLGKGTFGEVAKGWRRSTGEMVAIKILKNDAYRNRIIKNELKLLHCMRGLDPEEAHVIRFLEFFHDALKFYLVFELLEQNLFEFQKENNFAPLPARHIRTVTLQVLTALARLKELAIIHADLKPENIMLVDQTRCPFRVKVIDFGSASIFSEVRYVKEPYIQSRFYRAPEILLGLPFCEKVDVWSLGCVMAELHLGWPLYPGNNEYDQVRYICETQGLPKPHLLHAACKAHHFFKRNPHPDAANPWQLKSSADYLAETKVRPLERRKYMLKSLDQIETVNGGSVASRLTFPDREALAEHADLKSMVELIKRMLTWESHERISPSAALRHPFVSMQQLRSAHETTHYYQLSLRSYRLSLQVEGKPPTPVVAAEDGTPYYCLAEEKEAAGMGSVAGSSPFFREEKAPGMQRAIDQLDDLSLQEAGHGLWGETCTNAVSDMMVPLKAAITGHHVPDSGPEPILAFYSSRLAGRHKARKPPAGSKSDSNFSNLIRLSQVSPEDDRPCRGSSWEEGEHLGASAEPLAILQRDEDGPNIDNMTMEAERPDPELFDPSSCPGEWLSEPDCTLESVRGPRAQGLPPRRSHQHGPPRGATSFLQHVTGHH

[9] = molecular target: T1, DYRK1A; test: NanoBRET K192 panel; assay type: cell-based; details: read-out: NanoBRET K192 % occupancy at 10 μM, DYRK1A
[10] = test system: AKT (phospho-Ser129); test: In vivo CSNK2 inhibition; design: species or system CD-1 mice; details: 10 mg/kg i.p. b.i.d., 36 h, vs vehicle
[11] = test system: A549-ACE2 cells; test: LDH cytotoxicity assay; assay type: cell-based, human; details: concentrations below 10 μM
[12] = molecular target: DAPK2 (Homo sapiens, UniProt Q9UIK4); test: NanoBRET K192 panel; assay type: cell-based; details: read-out: NanoBRET K192 % occupancy at 10 μM, DAPK2
[13] = Human hepatocyte stability; assay type: in vitro ADME; details: cryopreserved hepatocytes
[14] = Human liver microsomal CLint; assay type: in vitro ADME; details: liver microsomes
[15] = Mouse hepatocyte stability; assay type: in vitro ADME; details: male, CD-1, mouse, cryopreserved hepatocytes
[16] = Mouse liver microsomal stability; assay type: in vitro ADME; details: male, CD-1, mouse, liver microsomes, pH 7.4

DAPK2, sequence (Q9UIK4 whole entry): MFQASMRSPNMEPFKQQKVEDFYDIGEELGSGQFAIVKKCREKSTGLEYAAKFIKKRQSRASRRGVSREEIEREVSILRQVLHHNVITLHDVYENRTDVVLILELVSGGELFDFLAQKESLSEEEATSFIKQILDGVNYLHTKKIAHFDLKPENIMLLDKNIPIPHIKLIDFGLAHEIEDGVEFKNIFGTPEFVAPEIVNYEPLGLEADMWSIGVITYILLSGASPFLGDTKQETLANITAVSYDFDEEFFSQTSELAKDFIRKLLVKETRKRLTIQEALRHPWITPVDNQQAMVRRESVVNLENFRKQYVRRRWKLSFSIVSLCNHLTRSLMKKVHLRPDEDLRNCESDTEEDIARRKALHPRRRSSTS
PHKG1, sequence (Q16816 whole entry): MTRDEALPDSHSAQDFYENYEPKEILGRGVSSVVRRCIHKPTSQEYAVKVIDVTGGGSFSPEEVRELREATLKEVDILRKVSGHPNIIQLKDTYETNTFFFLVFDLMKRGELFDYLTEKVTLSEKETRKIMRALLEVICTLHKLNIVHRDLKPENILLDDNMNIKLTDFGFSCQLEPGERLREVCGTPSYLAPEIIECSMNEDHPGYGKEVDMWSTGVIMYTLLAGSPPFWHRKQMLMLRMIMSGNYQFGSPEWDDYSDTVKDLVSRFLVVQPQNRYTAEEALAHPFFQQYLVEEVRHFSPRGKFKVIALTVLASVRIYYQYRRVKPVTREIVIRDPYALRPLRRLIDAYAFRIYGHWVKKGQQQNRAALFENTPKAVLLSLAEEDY
CLK4, sequence (Q9HAZ1 whole entry): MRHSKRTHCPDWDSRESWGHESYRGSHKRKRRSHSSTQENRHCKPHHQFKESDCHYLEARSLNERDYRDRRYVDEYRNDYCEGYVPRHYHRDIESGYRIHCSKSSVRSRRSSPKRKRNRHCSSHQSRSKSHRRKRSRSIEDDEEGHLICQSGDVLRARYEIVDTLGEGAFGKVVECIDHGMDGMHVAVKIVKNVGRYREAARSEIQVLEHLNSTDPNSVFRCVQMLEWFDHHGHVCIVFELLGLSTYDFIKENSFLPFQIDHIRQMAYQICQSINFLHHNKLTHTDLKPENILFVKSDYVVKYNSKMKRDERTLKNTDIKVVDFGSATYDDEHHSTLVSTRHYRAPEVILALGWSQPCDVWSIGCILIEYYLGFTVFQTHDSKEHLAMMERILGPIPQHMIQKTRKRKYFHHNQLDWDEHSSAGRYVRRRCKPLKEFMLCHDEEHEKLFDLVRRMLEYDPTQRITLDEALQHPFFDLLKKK

Structure (SMILES): CCN(CCN)c1ccc(Nc2cc(NC3CC3)n3ncc(C#N)c3n2)cc1-n1cnnc1 [Compound 53, 5-((4-((2-Aminoethyl)(ethyl)amino)-3-(4H-1,2,4-triazol-4-yl)phenyl)amino)-7-(cyclopropylamino)pyrazolo[1,5-a]pyrimidine-3-carbonitrile]
phosphorylation levels of CSNK2 substrate EIF2S2 [2]: reduction in phosphorylation levels
plasma stability [3]: stable in plasma
DYRK1A NanoBRET dose-response occupancy [4]: d Poor assay window observed but no occupancy observed up to 3 μM. n.d. = not determined.
receptor occupancy at 10 µM [5]: 50 to 75%
receptor occupancy at 10 µM [6]: 50 to 75%
phosphorylation of Ser2 of EIF2S2 in mouse lung [7]: no statistically significant reduction
receptor occupancy at 10 µM [8]: 50 to 75%
receptor occupancy at 10 µM [9]: 50 to 75%
phosphorylation of Ser129 of AKT in mouse lung [10]: no statistically significant reduction
cell viability by LDH assay [11]: No decrease in cell viability
receptor occupancy at 10 µM [12]: 50 to 75%

Structure (SMILES): CC(=O)Nc1cccc(Nc2cc(NC3CC3)n3ncc(C#N)c3n2)c1 [Compound 3, N-(3-((3-Cyano-7-(cyclopropylamino)pyrazolo[1,5-a]pyrimidin-5-yl)amino)phenyl)acetamide]
CLint scaled at 2 h, 1 µM [13]: 58 mL/min/kg
CLint scaled at 1 h [14]: 25 mL/min/kg
CLint scaled at 2 h, 1 µM [15]: 520 mL/min/kg
remaining at 0.5 h, 5 μM [16]: 22%

Structure (SMILES): CN[C@H]1CCCN(c2ccc(Nc3cc(NC4CC4)n4ncc(C#N)c4n3)cc2-n2cnnc2)C1 [Compound 69, (S)-7-(Cyclopropylamino)-5-((4-(3-(methylamino)piperidin-1-yl)-3-(4H-1,2,4-triazol-4-yl)phenyl)amino)pyrazolo[1,5-a]pyrimidine-3-carbonitrile]
fold decrease in MHV potency ([1]; relative to 68): 3 fold

The next lines start with the values.

pIC50 ([1]; read-out: MHV IC50, positive control of the assay): 5.92
Structure (SMILES): O=c1nc(NO)ccn1[C@@H]1O[C@H](CO)[C@@H](O)[C@H]1O [EIDD-1931, reference compound]

CLint scaled at 2 h, 1 µM [13]: 16 mL/min/kg
CLint scaled at 1 h [14]: 7.6 mL/min/kg
CLint scaled at 2 h, 1 µM [15]: 160 mL/min/kg
remaining at 0.5 h, 5 μM [16]: 74%
Structure (SMILES): N#Cc1cnn2c(NC3CC3)cc(Nc3cccc(-n4cnnc4)c3)nc12 [Compound 14, 5-((3-(4H-1,2,4-Triazol-4-yl)phenyl)amino)-7-(cyclopropylamino)pyrazolo[1,5-a]pyrimidine-3-carbonitrile]
